Experimental data taken from patent US20210386732A1, “SEMI-SOLID ANTI-HISTAMINE COMPOSITIONS AND METHODS OF MAKING AND USING THEREOF” (SEATTLE GUMMY COMPANY, priority 2018, published 2021).

Assays:
[1] = Complex formation with β-cyclodextrin, association constant (ITC measurements for cetirizine); format: binding; conditions: beta versus alpha and gamma cyclodextrin
From the text: Alpha cyclodextrin consists of a ring of 6 glucose units while beta has 7 glucose units in a ring and gamma has 8 glucose units in a ring. The ring structures form a crown. The inside of the crown is able to complex with APIs in the current application. […] Either the phenyl group or the 4-chlorophenyl group fit inside the ring structure. The inside cavity of cylcodextrins is largely hydrophobic, which is favorable for APIs' hydrophobic aromatic systems. The formation of the chelate structure is endothermically favorable due to electrostatic interactions of the pi system of the aromatic moiety with in the hydrophobic cavity and electronic interaction with the hydrogen atoms and glycidyl ether bonds. It is these electronic interactions between these systems of the cyclodextrin and the pi system that gives the favorable heat of formation. […] In one embodiment, the complexing composition consists essentially of beta-cyclodextrin.
Diphenhydramine forms complexes with cylcodextrins. The mechanism is similar to that of cetirizine. […] In one embodiment, the complexing agent comprises beta cyclodextrin, which is configured to form antihistamine complex. In some embodiments, the complexing agent comprises alpha-cyclodextrin, gamma-cyclodextrin, or a combination there. The action of coordination with diphenhydramine is similar to that of cetirizine.

[2] = cited from earlier work
[3] = cited from earlier work; remark: listed apart in the source
[4] = cited from earlier work; remark: listed apart in the source
[5] = per 1 gram of water; cited from earlier work

Row | SMILES | formation constant with beta cyclodextrin relative to alpha and gamma cyclodextrin [1] | association constant K(a) of the complex with α-cyclodextrin [2] | association constant K(a) of the complex with β-cyclodextrin [3] | association constant K(a) of the complex with γ-cyclodextrin [4] | amount that dissolves into 1 gram of water [5]
1 | O=C(O)COCCN1CCN(C(c2ccccc2)c2ccc(Cl)cc2)CC1 (stereo not drawn) [Cetirizine, cetirizine] | nearly four times | 1434 ± 60 M⁻¹ | 5641 ± 358 M⁻¹ | 1200 ± 50 M⁻¹ | –
2 | O=C(CO)[C@@H](O)[C@H](O)[C@H](O)CO [fructose] | – | – | – | – | ~4 grams
3 | OC[C@H]1O[C@@](CO)(O[C@H]2O[C@H](CO)[C@@H](O)[C@H](O)[C@H]2O)[C@@H](O)[C@@H]1O [sucrose, O-α-D-glucopyranosyl-(1→2)-β-D-fructofuranoside] | – | – | – | – | More than 2 grams
